From PubChem BioAssay (NCI)
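At the GI50, growth is halved. TGI: concentration producing complete growth inhibition.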

How the values were obtained:
Assay in all cases: NCI anticancer screen, dose series, 384-well format
786-0 renal = tested on: 786-0 renal
A498 renal = tested on: A498 renal
A549 NSCLC = tested on: A549 NSCLC
ACHN renal = tested on: ACHN renal
BT-549 breast = tested on: BT-549 breast
CAKI-1 renal = tested on: CAKI-1 renal
COLO 205 colon = tested on: COLO 205 colon
DU-145 prostate = tested on: DU-145 prostate
EKVX NSCLC = tested on: EKVX NSCLC
HCC-2998 colon = tested on: HCC-2998 colon
HCT-116 colon = tested on: HCT-116 colon
HCT-15 colon = tested on: HCT-15 colon
HL-60(TB) leukemia = tested on: HL-60(TB) leukemia
HOP-62 NSCLC = tested on: HOP-62 NSCLC
HOP-92 NSCLC = tested on: HOP-92 NSCLC
HS 578T breast = tested on: HS 578T breast
HT29 colon = tested on: HT29 colon
IGROV1 ovarian = tested on: IGROV1 ovarian
K-562 leukemia = tested on: K-562 leukemia
KM12 colon = tested on: KM12 colon
LOX IMVI melanoma = tested on: LOX IMVI melanoma
M14 melanoma = tested on: M14 melanoma
MALME-3M melanoma = tested on: MALME-3M melanoma
MCF7 breast = tested on: MCF7 breast
MDA-MB-231 breast = tested on: MDA-MB-231 breast
MDA-MB-435 melanoma = tested on: MDA-MB-435 melanoma
MDA-MB-468 breast = tested on: MDA-MB-468 breast
MOLT-4 leukemia = tested on: MOLT-4 leukemia
NCI-H226 lung = tested on: NCI-H226 lung
NCI-H23 lung = tested on: NCI-H23 lung
NCI-H322M lung = tested on: NCI-H322M lung
NCI-H460 NSCLC = tested on: NCI-H460 NSCLC
NCI-H522 lung = tested on: NCI-H522 lung
NCI/ADR-RES ovarian = tested on: NCI/ADR-RES ovarian
OVCAR-3 ovarian = tested on: OVCAR-3 ovarian
OVCAR-4 ovarian = tested on: OVCAR-4 ovarian
OVCAR-5 ovarian = tested on: OVCAR-5 ovarian
PC-3 prostate = tested on: PC-3 prostate
RPMI-8226 leukemia = tested on: RPMI-8226 leukemia
RXF 393 renal = tested on: RXF 393 renal
SF-268 CNS = tested on: SF-268 CNS
SF-295 CNS = tested on: SF-295 CNS
SF-539 CNS = tested on: SF-539 CNS
SK-MEL-2 melanoma = tested on: SK-MEL-2 melanoma
SK-MEL-28 melanoma = tested on: SK-MEL-28 melanoma
SK-MEL-5 melanoma = tested on: SK-MEL-5 melanoma
SK-OV-3 ovarian = tested on: SK-OV-3 ovarian
SN12C renal = tested on: SN12C renal
SNB-19 CNS = tested on: SNB-19 CNS
SNB-75 CNS = tested on: SNB-75 CNS
SR leukemia = tested on: SR leukemia
SW-620 colon = tested on: SW-620 colon
T-47D breast = tested on: T-47D breast
TK-10 renal = tested on: TK-10 renal
U251 glioblastoma = tested on: U251 glioblastoma
UACC-257 melanoma = tested on: UACC-257 melanoma
UACC-62 melanoma = tested on: UACC-62 melanoma
UO-31 renal = tested on: UO-31 renal

With O=C(c1ccc(/C=C/c2n[nH]c3ccccc23)cc1)N1CCNCC1 as the compound, how does the GI50 ([…]-0 renal) read?
Its GI50 is 10.7 µM.

And the TGI (786-0 renal)?
Its TGI is 22.7 µM.

And the GI50 (A498 renal)?
The GI50 was 13.2 µM.

What about the TGI (A498 renal) of the same compound?
Its TGI is 26 µM.

And the GI50 (A549 NSCLC)?
The GI50 was 1.96 µM.

What about the TGI (A549 NSCLC) of the same compound?
Its TGI is 19.9 µM.

And the GI50 (ACHN renal)?
The GI50 was 4.29 µM.

What about the TGI (ACHN renal) of the same compound?
Its TGI is 18.3 µM.

What about the GI50 (BT-549 breast) of the same compound?
The GI50 was 0.597 µM.

What about the TGI (BT-549 breast) of the same compound?
The TGI was 2.29 µM.

And the GI50 (CAKI-1 renal)?
Its GI50 is 3.37 µM.

What about the TGI (CAKI-1 renal) of the same compound?
Its TGI is 16.4 µM.

And the GI50 (COLO 205 colon)?
Its GI50 is 0.635 µM.

What about the TGI (COLO 205 colon) of the same compound?
The TGI was 3.89 µM.

And the GI50 (DU-145 prostate)?
The GI50 was 5.22 µM.

What about the TGI (DU-145 prostate) of the same compound?
Its TGI is 20.7 µM.

What about the GI50 (EKVX NSCLC) of the same compound?
The GI50 was 3.23 µM.

What about the TGI (EKVX NSCLC) of the same compound?
Its TGI is 14.7 µM.

What about the GI50 (HCC-2998 colon) of the same compound?
Its GI50 is 11 µM.

And the TGI (HCC-2998 colon)?
The TGI was 27.4 µM.

And the GI50 (HCT-116 colon)?
The GI50 was 1.77 µM.

What about the TGI (HCT-116 colon) of the same compound?
Its TGI is 18.6 µM.

And the GI50 (HCT-15 colon)?
The GI50 was 3.41 µM.

And the TGI (HCT-15 colon)?
The TGI was 18.9 µM.

And the GI50 (HL-60(TB) leukemia)?
Its GI50 is 0.416 µM.

And the TGI (HL-60(TB) leukemia)?
The TGI was 15 µM.

What about the GI50 (HOP-62 NSCLC) of the same compound?
Its GI50 is 2.32 µM.

And the TGI (HOP-62 NSCLC)?
Its TGI is 16.5 µM.

And the GI50 (HOP-92 NSCLC)?
Its GI50 is 2.32 µM.

What about the TGI (HOP-92 NSCLC) of the same compound?
Its TGI is 11 µM.

What about the GI50 (HS 578T breast) of the same compound?
Its GI50 is 2.47 µM.

And the TGI (HS 578T breast)?
Its TGI is 7.17 µM.

What about the GI50 (HT29 colon) of the same compound?
The GI50 was 3.1 µM.

And the TGI (HT29 colon)?
The TGI was 14.6 µM.

And the GI50 (IGROV1 ovarian)?
The GI50 was 4.66 µM.

What about the TGI (IGROV1 ovarian) of the same compound?
Its TGI is 18.2 µM.

And the GI50 (K-562 leukemia)?
The GI50 was 0.214 µM.

And the TGI (K-562 leukemia)?
The TGI was 1.08 µM.

And the GI50 (KM12 colon)?
The GI50 was 0.118 µM.

What about the TGI (KM12 colon) of the same compound?
Its TGI is 10.8 µM.

What about the GI50 (LOX IMVI melanoma) of the same compound?
The GI50 was 2.99 µM.

And the TGI (LOX IMVI melanoma)?
The TGI was 10.8 µM.

What about the GI50 (M14 melanoma) of the same compound?
The GI50 was 4.3 µM.

And the TGI (M14 melanoma)?
The TGI was 17 µM.

And the GI50 (MALME-3M melanoma)?
The GI50 was 2.7 µM.

What about the TGI (MALME-3M melanoma) of the same compound?
The TGI was 10.8 µM.

And the GI50 (MCF7 breast)?
The GI50 was 2.9 µM.

And the TGI (MCF7 breast)?
The TGI was 16.3 µM.

And the GI50 (MDA-MB-231 breast)?
The GI50 was 3.41 µM.

What about the TGI (MDA-MB-231 breast) of the same compound?
Its TGI is 17.9 µM.

What about the GI50 (MDA-MB-435 melanoma) of the same compound?
Its GI50 is 2.01 µM.

And the TGI (MDA-MB-435 melanoma)?
Its TGI is 13.3 µM.

What about the GI50 (MDA-MB-468 breast) of the same compound?
Its GI50 is 1.07 µM.

What about the TGI (MDA-MB-468 breast) of the same compound?
The TGI was 16.6 µM.

What about the GI50 (MOLT-4 leukemia) of the same compound?
Its GI50 is 0.252 µM.

And the TGI (MOLT-4 leukemia)?
Its TGI is 1.27 µM.

What about the GI50 (NCI-H226 lung) of the same compound?
Its GI50 is 1.32 µM.

And the TGI (NCI-H226 lung)?
The TGI was 4.89 µM.

And the GI50 (NCI-H23 lung)?
The GI50 was 2.69 µM.

And the TGI (NCI-H23 lung)?
Its TGI is 13.6 µM.

And the GI50 (NCI-H322M lung)?
Its GI50 is 11.7 µM.

And the TGI (NCI-H322M lung)?
Its TGI is 27.8 µM.

What about the GI50 (NCI-H460 NSCLC) of the same compound?
The GI50 was 0.543 µM.

What about the TGI (NCI-H460 NSCLC) of the same compound?
The TGI was 10.9 µM.

And the GI50 (NCI-H522 lung)?
Its GI50 is 0.529 µM.

What about the TGI (NCI-H522 lung) of the same compound?
Its TGI is 5.51 µM.

And the GI50 (NCI/ADR-RES ovarian)?
The GI50 was 13.8 µM.

What about the TGI (NCI/ADR-RES ovarian) of the same compound?
Its TGI is 26.9 µM.

And the GI50 (OVCAR-3 ovarian)?
Its GI50 is 11.6 µM.

What about the TGI (OVCAR-3 ovarian) of the same compound?
The TGI was 24.5 µM.

What about the GI50 (OVCAR-4 ovarian) of the same compound?
The GI50 was 21.7 µM.

And the TGI (OVCAR-4 ovarian)?
Its TGI is 37.5 µM.

What about the GI50 (OVCAR-5 ovarian) of the same compound?
Its GI50 is 3.48 µM.

And the TGI (OVCAR-5 ovarian)?
The TGI was greater than 100 µM.

And the GI50 (PC-3 prostate)?
The GI50 was 5.28 µM.

What about the TGI (PC-3 prostate) of the same compound?
The TGI was 21.2 µM.

What about the GI50 (RPMI-8226 leukemia) of the same compound?
Its GI50 is 1.17 µM.

What about the TGI (RPMI-8226 leukemia) of the same compound?
Its TGI is 11.1 µM.

What about the GI50 (RXF 393 renal) of the same compound?
Its GI50 is 6.96 µM.

And the TGI (RXF 393 renal)?
Its TGI is 19.7 µM.

What about the GI50 (SF-268 CNS) of the same compound?
The GI50 was 4.18 µM.

What about the TGI (SF-268 CNS) of the same compound?
The TGI was 19.5 µM.

And the GI50 (SF-295 CNS)?
The GI50 was 2.12 µM.

And the TGI (SF-295 CNS)?
Its TGI is 17.3 µM.

What about the GI50 (SF-539 CNS) of the same compound?
Its GI50 is 1.53 µM.

What about the TGI (SF-539 CNS) of the same compound?
Its TGI is 5.75 µM.

And the GI50 (SK-MEL-2 melanoma)?
Its GI50 is 14.5 µM.

And the TGI (SK-MEL-2 melanoma)?
Its TGI is 27.7 µM.

What about the GI50 (SK-MEL-28 melanoma) of the same compound?
The GI50 was 11.7 µM.

And the TGI (SK-MEL-28 melanoma)?
The TGI was 24 µM.

And the GI50 (SK-MEL-5 melanoma)?
Its GI50 is 5.38 µM.

And the TGI (SK-MEL-5 melanoma)?
The TGI was 19.4 µM.

What about the GI50 (SK-OV-3 ovarian) of the same compound?
Its GI50 is 7.59 µM.

What about the TGI (SK-OV-3 ovarian) of the same compound?
Its TGI is 21 µM.

What about the GI50 (SN12C renal) of the same compound?
The GI50 was 1.88 µM.

And the TGI (SN12C renal)?
The TGI was 10.6 µM.

What about the GI50 (SNB-19 CNS) of the same compound?
The GI50 was 12.1 µM.

And the TGI (SNB-19 CNS)?
Its TGI is 27.7 µM.

What about the GI50 (SNB-75 CNS) of the same compound?
The GI50 was 3.4 µM.

What about the TGI (SNB-75 CNS) of the same compound?
Its TGI is 9.95 µM.

And the GI50 (SR leukemia)?
The GI50 was 0.18 µM.

What about the TGI (SR leukemia) of the same compound?
The TGI was 0.32 µM.

And the GI50 (SW-620 colon)?
Its GI50 is 3.1 µM.

What about the TGI (SW-620 colon) of the same compound?
The TGI was 14.1 µM.

What about the GI50 (T-47D breast) of the same compound?
The GI50 was 17.7 µM.

And the TGI (T-47D breast)?
The TGI was 31.9 µM.

And the GI50 (TK-10 renal)?
Its GI50 is 4.91 µM.

And the TGI (TK-10 renal)?
Its TGI is 22.7 µM.

What about the GI50 (U251 glioblastoma) of the same compound?
The GI50 was 11.2 µM.

What about the TGI (U251 glioblastoma) of the same compound?
Its TGI is 23.7 µM.

And the GI50 (UACC-257 melanoma)?
Its GI50 is 5.94 µM.

What about the TGI (UACC-257 melanoma) of the same compound?
Its TGI is 17.8 µM.

And the GI50 (UACC-62 melanoma)?
Its GI50 is 7.66 µM.

What about the TGI (UACC-62 melanoma) of the same compound?
Its TGI is 20.8 µM.

What about the GI50 (UO-31 renal) of the same compound?
The GI50 was 2.69 µM.

And the TGI (UO-31 renal)?
The TGI was 17.2 µM.
